According to patent US6693114B2, “4-oxo-1,4-dihydro[1,8]naphthyridine-3-carboxamides as antiviral agents” (Pharmacia & Upjohn Company, priority 2000, dated 2004):
Each block holds one compound with its values, some of them ahead of it.

Assays:
HCMV polymerase = biological target: T1, HCMV polymerase (Human cytomegalovirus, UniProt P08546); assay: HCMV polymerase assay (scintillation proximity assay, modified version); assay type: biochemical; details: for IC50: modified HCMV polymerase SPA assay, compounds diluted in 100% DMSO, 4.5 mM DTT
T1 construct: made in house; host or cells: recombinant baculovirus-infected SF-9 cells
Experimental: The HCMV polymerase assay is performed using a scintillation proximity assay (SPA) as described in several references, such as N. D. Cook, et al., Pharmaceutical Manufacturing International, pages 49-53 (1992); K. Takeuchi, Laboratory Practice, September issue (1992); U.S. Pat. No. 4,568,649 (1986); which are incorporated by reference herein. Reactions are performed in 96-well plates. The assay is conducted in 100 μl volume with 5.4 mM HEPES (pH 7.5), 11.7 mM KCl, 4.5 mM MgCl2, 0.36 mg/ml BSA, and 90 nM ^3H-dTTP. Assays are run with and without CHAPS, (3-[(3-cholamidopropyl)-dimethylammonio]-1-propane-sulfonate) at a final concentration of 2 mM. HCMV polymerase is diluted in enzyme dilution buffer containing 50% glycerol, 250 mM NaCl, 10 mM HEPES (pH 7.5), 100 μg/ml BSA, and 0.01% sodium azide. The HCMV polymerase, which is expressed in recombinant baculovirus-infected SF-9 cells and purified according to literature procedures, is added at 10% (or 10 μl) of the final reaction volume, i.e., 100 μl. Compounds are diluted in 50% DMSO and 10 μl are added to each well. Control wells contain an equivalent concentration of DMSO. Unless noted otherwise, reactions are initiated via the addition of 6 nM biotinylated poly(dA)-oligo(dT) template/primer to reaction mixtures containing the enzyme, substrate, and compounds of interest. Plates are incubated in a 25° C. or 37° C. H2O bath and terminated via the addition of 40 μl/reaction of 0.5 M EDTA (pH 8) per well. Reactions are terminated within the time-frame during which substrate incorporation is linear and varied depending upon the enzyme and conditions used, i.e., 30 min. for HCMV polymerase. Ten μl of streptavidin-SPA beads (20 mg/ml in PBS/10% glycerol) are added following termination of the reaction. Plates are incubated 10 min. at 37° C., then equilibrated to room temperature, and counted on a Packard Topcount. Linear regressions are performed and IC50's are calculated using computer software.
A modified version of the above HCMV polymerase assay is performed as described above, but with the following changes: Compounds are diluted in 100% DMSO until final dilution into assay buffer. In the previous assay, compounds are diluted in 50% DMSO. 4.5 mM dithiotherotol (DTT) is added to the polymerase buffer. […] All results are listed as Polymerase IC50 (μM) values. In Table 1, the term “nd” refers to activity data not determined.

HSV polymerase = HSV polymerase (Human herpesvirus 1, UniProt P04293); assay: HSV polymerase assay (Table 1, Polymerase IC50); assay type: biochemical; details: modified polymerase SPA assay
VZV polymerase = VZV polymerase (Varicella-zoster virus, UniProt P09252); assay: VZV polymerase assay (Table 1, Polymerase IC50); assay type: biochemical; details: modified polymerase SPA assay
VZV polymerase, sequence (P09252 whole entry): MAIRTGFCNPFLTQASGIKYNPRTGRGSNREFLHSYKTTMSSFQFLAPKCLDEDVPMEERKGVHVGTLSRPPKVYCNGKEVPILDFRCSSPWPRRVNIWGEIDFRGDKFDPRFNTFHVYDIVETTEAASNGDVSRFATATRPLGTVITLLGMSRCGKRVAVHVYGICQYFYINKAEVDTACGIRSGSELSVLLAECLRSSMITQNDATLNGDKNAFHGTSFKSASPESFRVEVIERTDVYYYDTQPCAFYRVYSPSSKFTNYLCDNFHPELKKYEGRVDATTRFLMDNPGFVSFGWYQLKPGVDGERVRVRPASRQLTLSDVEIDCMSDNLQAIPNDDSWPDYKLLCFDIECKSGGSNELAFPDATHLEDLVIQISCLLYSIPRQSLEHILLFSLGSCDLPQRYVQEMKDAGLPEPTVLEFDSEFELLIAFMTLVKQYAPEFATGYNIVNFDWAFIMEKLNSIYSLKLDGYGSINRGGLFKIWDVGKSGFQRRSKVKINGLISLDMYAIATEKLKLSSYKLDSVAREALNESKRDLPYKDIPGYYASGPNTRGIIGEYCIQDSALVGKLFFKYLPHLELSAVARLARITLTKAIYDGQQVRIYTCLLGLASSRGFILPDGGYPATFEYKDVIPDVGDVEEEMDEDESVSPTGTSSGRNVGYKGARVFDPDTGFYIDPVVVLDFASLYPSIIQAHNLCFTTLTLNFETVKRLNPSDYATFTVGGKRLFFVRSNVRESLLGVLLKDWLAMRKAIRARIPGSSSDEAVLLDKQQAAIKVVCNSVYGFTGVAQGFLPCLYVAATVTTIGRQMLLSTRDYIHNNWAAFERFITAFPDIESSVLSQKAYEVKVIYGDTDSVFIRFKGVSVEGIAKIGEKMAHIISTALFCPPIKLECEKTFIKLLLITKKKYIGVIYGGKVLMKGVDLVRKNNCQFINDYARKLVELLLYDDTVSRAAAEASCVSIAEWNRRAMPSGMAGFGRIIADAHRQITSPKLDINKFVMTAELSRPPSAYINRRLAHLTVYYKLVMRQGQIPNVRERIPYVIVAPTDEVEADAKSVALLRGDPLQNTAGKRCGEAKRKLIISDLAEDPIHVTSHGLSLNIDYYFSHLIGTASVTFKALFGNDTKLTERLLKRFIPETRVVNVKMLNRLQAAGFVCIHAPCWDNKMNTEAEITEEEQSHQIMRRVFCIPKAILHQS

T1 sequence (P08546 whole entry): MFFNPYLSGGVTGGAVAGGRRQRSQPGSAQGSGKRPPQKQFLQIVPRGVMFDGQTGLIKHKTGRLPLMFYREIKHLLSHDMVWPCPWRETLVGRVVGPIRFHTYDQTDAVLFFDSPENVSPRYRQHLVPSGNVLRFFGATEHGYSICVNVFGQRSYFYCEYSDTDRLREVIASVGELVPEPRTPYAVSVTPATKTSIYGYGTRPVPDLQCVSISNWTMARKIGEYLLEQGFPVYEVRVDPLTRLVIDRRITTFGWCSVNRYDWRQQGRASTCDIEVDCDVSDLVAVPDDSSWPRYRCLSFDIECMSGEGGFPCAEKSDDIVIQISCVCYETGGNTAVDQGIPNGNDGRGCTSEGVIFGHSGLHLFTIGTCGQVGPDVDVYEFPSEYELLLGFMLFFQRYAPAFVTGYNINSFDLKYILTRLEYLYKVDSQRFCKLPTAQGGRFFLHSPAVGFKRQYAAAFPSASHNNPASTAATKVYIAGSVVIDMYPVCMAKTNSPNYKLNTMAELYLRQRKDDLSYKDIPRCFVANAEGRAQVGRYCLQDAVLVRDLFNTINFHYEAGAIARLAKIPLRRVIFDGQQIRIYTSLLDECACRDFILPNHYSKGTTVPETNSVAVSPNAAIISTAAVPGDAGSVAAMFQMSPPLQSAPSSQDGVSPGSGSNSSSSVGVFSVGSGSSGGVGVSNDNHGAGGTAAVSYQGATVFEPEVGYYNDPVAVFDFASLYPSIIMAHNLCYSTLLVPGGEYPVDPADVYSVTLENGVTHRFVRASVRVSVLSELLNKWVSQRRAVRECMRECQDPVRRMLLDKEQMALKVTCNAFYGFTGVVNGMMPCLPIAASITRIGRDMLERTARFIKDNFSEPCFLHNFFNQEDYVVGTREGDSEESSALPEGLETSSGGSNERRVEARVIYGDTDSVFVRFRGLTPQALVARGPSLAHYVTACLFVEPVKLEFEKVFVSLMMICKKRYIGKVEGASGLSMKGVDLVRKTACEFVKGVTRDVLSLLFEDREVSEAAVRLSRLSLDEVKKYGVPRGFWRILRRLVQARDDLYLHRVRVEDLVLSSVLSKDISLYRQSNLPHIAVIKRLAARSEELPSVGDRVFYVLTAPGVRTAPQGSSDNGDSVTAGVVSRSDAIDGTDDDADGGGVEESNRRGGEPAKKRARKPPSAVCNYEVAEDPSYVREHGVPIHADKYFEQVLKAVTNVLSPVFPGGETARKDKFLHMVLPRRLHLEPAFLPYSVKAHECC
HSV polymerase, sequence (P04293 whole entry): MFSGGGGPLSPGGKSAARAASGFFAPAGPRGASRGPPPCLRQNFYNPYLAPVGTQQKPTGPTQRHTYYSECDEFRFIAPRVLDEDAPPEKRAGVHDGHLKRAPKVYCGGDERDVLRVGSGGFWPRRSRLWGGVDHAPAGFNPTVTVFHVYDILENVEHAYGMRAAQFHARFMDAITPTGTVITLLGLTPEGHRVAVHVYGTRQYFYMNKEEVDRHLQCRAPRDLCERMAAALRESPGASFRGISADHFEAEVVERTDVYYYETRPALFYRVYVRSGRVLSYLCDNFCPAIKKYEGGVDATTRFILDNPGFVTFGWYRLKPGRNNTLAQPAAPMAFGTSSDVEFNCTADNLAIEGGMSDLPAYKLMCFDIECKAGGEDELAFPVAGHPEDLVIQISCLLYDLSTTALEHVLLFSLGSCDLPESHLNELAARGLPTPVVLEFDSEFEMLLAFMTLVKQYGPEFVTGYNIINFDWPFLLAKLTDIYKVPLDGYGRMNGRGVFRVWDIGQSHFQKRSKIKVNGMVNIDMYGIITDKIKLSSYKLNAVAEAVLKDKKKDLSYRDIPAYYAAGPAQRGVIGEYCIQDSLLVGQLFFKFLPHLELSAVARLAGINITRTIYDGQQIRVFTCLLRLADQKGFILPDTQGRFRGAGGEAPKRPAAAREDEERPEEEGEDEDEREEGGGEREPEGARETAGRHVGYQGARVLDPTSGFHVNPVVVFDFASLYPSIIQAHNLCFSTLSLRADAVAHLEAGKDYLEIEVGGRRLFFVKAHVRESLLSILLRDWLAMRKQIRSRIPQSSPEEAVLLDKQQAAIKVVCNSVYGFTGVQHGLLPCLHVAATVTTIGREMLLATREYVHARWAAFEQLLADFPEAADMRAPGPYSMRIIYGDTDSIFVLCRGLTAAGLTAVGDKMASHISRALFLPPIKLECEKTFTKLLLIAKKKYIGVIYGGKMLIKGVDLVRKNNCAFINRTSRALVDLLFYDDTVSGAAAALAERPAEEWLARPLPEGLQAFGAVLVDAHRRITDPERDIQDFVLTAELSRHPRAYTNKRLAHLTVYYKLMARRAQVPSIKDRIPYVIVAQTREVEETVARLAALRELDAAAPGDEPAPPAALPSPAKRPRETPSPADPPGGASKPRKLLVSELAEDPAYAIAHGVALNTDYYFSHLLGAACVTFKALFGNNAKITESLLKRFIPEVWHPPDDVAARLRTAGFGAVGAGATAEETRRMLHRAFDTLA

Structure (SMILES): Cc1nc2c(cc1Br)c(=O)c(C(=O)NCc1ccc(Cl)cc1)cn2C [Example 1, 6-bromo-N-(4-chlorobenzyl)-1,7-dimethyl-4-oxo-1,4-dihydro[1,8]naphthyridine-3-carboxamide]
melting point: 266 to 268 °C

Structure (SMILES): Cc1nc2c(cc1CCCO)c(=O)c(C(=O)NCc1ccc(Cl)cc1)cn2C [Example 3, N-(4-chlorobenzyl)-6-(3-hydroxypropyl)-1,7-dimethyl-4-oxo-1,4-dihydro[1,8]naphthyridine-3-carboxamide]
IC50 (HCMV polymerase): 2700 nM
IC50 (HSV polymerase): 2400 nM
IC50 (VZV polymerase): 1400 nM
melting point: 176 to 177 °C

Structure (SMILES): COc1nc2c(cc1I)c(=O)c(C(=O)NCc1ccc(Cl)cc1)cn2C [Example 4, N-(4-Chlorobenzyl)-6-iodo-7-methoxy-1-methyl-4-oxo-1,4-dihydro[1,8]naphthyridine-3-carboxamide]
IC50 (HCMV polymerase): 22300 nM

Structure (SMILES): Cn1cc(C(=O)NCc2ccc(Cl)cc2)c(=O)c2ccc(=O)[nH]c21 [Example 5, N-(4-Chlorobenzyl)-1-methyl-4,7-dioxo-1,4,7,8-tetrahydro[1,8]naphthyridine-3-carboxamide]
IC50 (HCMV polymerase): 17100 nM

Structure (SMILES): CCOC(=O)c1cc2c(=O)c(C(=O)NCc3ccc(Cl)cc3)cn(C)c2nc1OC [Example 8, Ethyl 6-{[(4-chlorobenzyl)amino]carbonyl}-2-methoxy-8-methyl-5-oxo-5,8-dihydro[1,8]naphthyridine-3-carboxylate]
inhibition at 20 µM (HCMV polymerase; at 20 μM): 37%

Further compounds by falling IC50 (HCMV polymerase), results first:

IC50 (HCMV polymerase): 1800 nM
IC50 (HSV polymerase): 1900 nM
IC50 (VZV polymerase): 1100 nM
melting point: 217 to 218 °C
Structure (SMILES): Cc1nc2c(cc1C#CCO)c(=O)c(C(=O)NCc1ccc(Cl)cc1)cn2C [Example 2, N-(4-chlorobenzyl)-6-(3-hydroxy-1-propynyl)-1,7-dimethyl-4-oxo-1,4-dihydro[1,8]naphthyridine-3-carboxamide]

IC50 (HCMV polymerase): 1170 nM
Structure (SMILES): COc1nc2c(cc1C#CCO)c(=O)c(C(=O)NCc1ccc(Cl)cc1)cn2C [Example 6, N-(4-chlorobenzyl)-6-(3-hydroxy-1-propynyl)-7-methoxy-1-methyl-4-oxo-1,4-dihydro[1,8]naphthyridine-3-carboxamide]

IC50 (HCMV polymerase): 460 nM
Structure (SMILES): COc1nc2c(cc1CCCO)c(=O)c(C(=O)NCc1ccc(Cl)cc1)cn2C [Example 7, N-(4-Chlorobenzyl)-6-(3-hydroxypropyl)-7-methoxy-1-methyl-4-oxo-1,4-dihydro[1,8]naphthyridine-3-carboxamide]
